In PubChem BioAssay (NCI):
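Abbreviation: GI50, concentration required for 50% inhibition of growth. TGI: total growth inhibition.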

Tests used:
Experiment in all cases: inhibition of tumour cell growth, NCI panel, 384-well format
MOLT-4 leukemia = system: MOLT-4 leukemia
PC-3 prostate = system: PC-3 prostate
SK-OV-3 ovarian = system: SK-OV-3 ovarian
NCI-H23 lung = system: NCI-H23 lung
U251 glioblastoma = system: U251 glioblastoma
786-0 renal = system: 786-0 renal
KM12 colon = system: KM12 colon
COLO 205 colon = system: COLO 205 colon
CCRF-CEM leukemia = system: CCRF-CEM leukemia
SNB-75 CNS = system: SNB-75 CNS
HS 578T breast = system: HS 578T breast
NCI-H322M lung = system: NCI-H322M lung
SF-539 CNS = system: SF-539 CNS
OVCAR-8 ovarian = system: OVCAR-8 ovarian
HCC-2998 colon = system: HCC-2998 colon
SW-620 colon = system: SW-620 colon
A549 NSCLC = system: A549 NSCLC
SNB-19 CNS = system: SNB-19 CNS
NCI/ADR-RES ovarian = system: NCI/ADR-RES ovarian
RXF 393 renal = system: RXF 393 renal
SF-295 CNS = system: SF-295 CNS
NCI-H226 lung = system: NCI-H226 lung
UACC-62 melanoma = system: UACC-62 melanoma
HT29 colon = system: HT29 colon
SK-MEL-2 melanoma = system: SK-MEL-2 melanoma
SR leukemia = system: SR leukemia
M14 melanoma = system: M14 melanoma
A498 renal = system: A498 renal
MCF7 breast = system: MCF7 breast
SK-MEL-5 melanoma = system: SK-MEL-5 melanoma
NCI-H460 NSCLC = system: NCI-H460 NSCLC
ACHN renal = system: ACHN renal
SK-MEL-28 melanoma = system: SK-MEL-28 melanoma
HCT-15 colon = system: HCT-15 colon
TK-10 renal = system: TK-10 renal
MALME-3M melanoma = system: MALME-3M melanoma
NCI-H522 lung = system: NCI-H522 lung
MDA-MB-468 breast = system: MDA-MB-468 breast
OVCAR-3 ovarian = system: OVCAR-3 ovarian
T-47D breast = system: T-47D breast
OVCAR-4 ovarian = system: OVCAR-4 ovarian
MDA-MB-231 breast = system: MDA-MB-231 breast
CAKI-1 renal = system: CAKI-1 renal
IGROV1 ovarian = system: IGROV1 ovarian
SF-268 CNS = system: SF-268 CNS
HL-60(TB) leukemia = system: HL-60(TB) leukemia
EKVX NSCLC = system: EKVX NSCLC
UACC-257 melanoma = system: UACC-257 melanoma
BT-549 breast = system: BT-549 breast
OVCAR-5 ovarian = system: OVCAR-5 ovarian
SN12C renal = system: SN12C renal
RPMI-8226 leukemia = system: RPMI-8226 leukemia
HOP-62 NSCLC = system: HOP-62 NSCLC
DU-145 prostate = system: DU-145 prostate
HOP-92 NSCLC = system: HOP-92 NSCLC
MDA-MB-435 melanoma = system: MDA-MB-435 melanoma

Compound: CNC(=O)c1ccc2cc(C3(O)CCn4cncc43)ccc2c1 (configuration not stated)
- GI50 (MOLT-4 leukemia): > 100 µM
- TGI (MOLT-4 leukemia): > 100 µM
- GI50 (PC-3 prostate): > 100 µM
- TGI (PC-3 prostate): > 100 µM
- GI50 (SK-OV-3 ovarian): > 100 µM
- TGI (SK-OV-3 ovarian): > 100 µM
- GI50 (NCI-H23 lung): > 100 µM
- TGI (NCI-H23 lung): > 100 µM
- GI50 (U251 glioblastoma): > 100 µM
- TGI (U251 glioblastoma): > 100 µM
- GI50 (786-0 renal): > 100 µM
- TGI (786-0 renal): > 100 µM
- GI50 (KM12 colon): > 100 µM
- TGI (KM12 colon): > 100 µM
- GI50 (COLO 205 colon): > 100 µM
- TGI (COLO 205 colon): > 100 µM
- GI50 (CCRF-CEM leukemia): > 100 µM
- TGI (CCRF-CEM leukemia): > 100 µM
- GI50 (SNB-75 CNS): > 100 µM
- TGI (SNB-75 CNS): > 100 µM
- GI50 (HS 578T breast): > 100 µM
- TGI (HS 578T breast): > 100 µM
- GI50 (NCI-H322M lung): > 100 µM
- TGI (NCI-H322M lung): > 100 µM
- GI50 (SF-539 CNS): > 100 µM
- TGI (SF-539 CNS): > 100 µM
- GI50 (OVCAR-8 ovarian): > 100 µM
- TGI (OVCAR-8 ovarian): > 100 µM
- GI50 (HCC-2998 colon): > 100 µM
- TGI (HCC-2998 colon): > 100 µM
- GI50 (SW-620 colon): > 100 µM
- TGI (SW-620 colon): > 100 µM
- GI50 (A549 NSCLC): > 100 µM
- TGI (A549 NSCLC): > 100 µM
- GI50 (SNB-19 CNS): > 100 µM
- TGI (SNB-19 CNS): > 100 µM
- GI50 (NCI/ADR-RES ovarian): > 100 µM
- TGI (NCI/ADR-RES ovarian): > 100 µM
- GI50 (RXF 393 renal): > 100 µM
- TGI (RXF 393 renal): > 100 µM
- GI50 (SF-295 CNS): > 100 µM
- TGI (SF-295 CNS): > 100 µM
- GI50 (NCI-H226 lung): > 100 µM
- TGI (NCI-H226 lung): > 100 µM
- GI50 (UACC-62 melanoma): > 100 µM
- TGI (UACC-62 melanoma): > 100 µM
- GI50 (HT29 colon): > 100 µM
- TGI (HT29 colon): > 100 µM
- GI50 (SK-MEL-2 melanoma): > 100 µM
- TGI (SK-MEL-2 melanoma): > 100 µM
- GI50 (SR leukemia): > 100 µM
- TGI (SR leukemia): > 100 µM
- GI50 (M14 melanoma): > 100 µM
- TGI (M14 melanoma): > 100 µM
- GI50 (A498 renal): > 100 µM
- TGI (A498 renal): > 100 µM
- GI50 (MCF7 breast): > 100 µM
- TGI (MCF7 breast): > 100 µM
- GI50 (SK-MEL-5 melanoma): > 100 µM
- TGI (SK-MEL-5 melanoma): > 100 µM
- GI50 (NCI-H460 NSCLC): > 100 µM
- TGI (NCI-H460 NSCLC): > 100 µM
- GI50 (ACHN renal): > 100 µM
- TGI (ACHN renal): > 100 µM
- GI50 (SK-MEL-28 melanoma): > 100 µM
- TGI (SK-MEL-28 melanoma): > 100 µM
- GI50 (HCT-15 colon): > 100 µM
- TGI (HCT-15 colon): > 100 µM
- GI50 (TK-10 renal): > 100 µM
- TGI (TK-10 renal): > 100 µM
- GI50 (MALME-3M melanoma): > 100 µM
- TGI (MALME-3M melanoma): > 100 µM
- GI50 (NCI-H522 lung): > 100 µM
- TGI (NCI-H522 lung): > 100 µM
- GI50 (MDA-MB-468 breast): > 100 µM
- TGI (MDA-MB-468 breast): > 100 µM
- GI50 (OVCAR-3 ovarian): > 100 µM
- TGI (OVCAR-3 ovarian): > 100 µM
- GI50 (T-47D breast): > 100 µM
- TGI (T-47D breast): > 100 µM
- GI50 (OVCAR-4 ovarian): > 100 µM
- TGI (OVCAR-4 ovarian): > 100 µM
- GI50 (MDA-MB-231 breast): > 100 µM
- TGI (MDA-MB-231 breast): > 100 µM
- GI50 (CAKI-1 renal): > 100 µM
- TGI (CAKI-1 renal): > 100 µM
- GI50 (IGROV1 ovarian): > 100 µM
- TGI (IGROV1 ovarian): > 100 µM
- GI50 (SF-268 CNS): > 100 µM
- TGI (SF-268 CNS): > 100 µM
- GI50 (HL-60(TB) leukemia): > 100 µM
- TGI (HL-60(TB) leukemia): > 100 µM
- GI50 (EKVX NSCLC): > 100 µM
- TGI (EKVX NSCLC): > 100 µM
- GI50 (UACC-257 melanoma): > 100 µM
- TGI (UACC-257 melanoma): > 100 µM
- GI50 (BT-549 breast): > 100 µM
- TGI (BT-549 breast): > 100 µM
- GI50 (OVCAR-5 ovarian): > 100 µM
- TGI (OVCAR-5 ovarian): > 100 µM
- GI50 (SN12C renal): > 100 µM
- TGI (SN12C renal): > 100 µM
- GI50 (RPMI-8226 leukemia): > 100 µM
- TGI (RPMI-8226 leukemia): > 100 µM
- GI50 (HOP-62 NSCLC): > 100 µM
- TGI (HOP-62 NSCLC): > 100 µM
- GI50 (DU-145 prostate): > 100 µM
- TGI (DU-145 prostate): > 100 µM
- GI50 (HOP-92 NSCLC): > 100 µM
- TGI (HOP-92 NSCLC): > 100 µM
- GI50 (MDA-MB-435 melanoma): > 100 µM
- TGI (MDA-MB-435 melanoma): > 100 µM
